Data: publication PMC11187217, “Anti-adhesive, anti-biofilm and fungicidal action of newly synthesized gemini quaternary ammonium salts” (Scientific Reports, 2024)
Where two headings read alike, the source gives them in different places. Marks after values point to notes of the source that are not given here.

Columns and labels:
[1] = tested on: C. albicans ATCC 10231; experiment: Filamentation of Candida albicans (DIC microscopy); type: cell-based; conditions: 24 h incubation, ½ MIC, 37 °C
Procedure: The culture of C. albicans ATCC 10231 was incubated in YPG medium at 28 °C for 18 h. Then the culture was centrifuged (1000 rcf, 5 min), and the resulting pellet was suspended in fresh YPG medium to obtain a culture with OD = 0.6. […] The formation of filaments was observed using a differential interference contrast microscope (Olympus BX50 DIC Microscope) after 12 and 24 h of exposure to selected surfactants on C. albicans cells. The control was a culture not exposed to gemini QAS. The experiment was performed based on a modification of the protocol of Obłąk et al. ^46.

[2] = Krafft point (TK) determination; type: physicochemical
Procedure: Elemental analysis was conducted utilizing Vario EL cube (Elementar, Germany) calibrated on acetanilide. Mass spectra were gain by electrospray ionization mass spectroscopy (ESI–MS) (micrOTOF-Q instrument; Bruker Daltonics, Germany). The ESI–MS aparatus was operated in the positive ion mode (calibrated with the Tunemix™ mixture; Bruker Daltonics; Germany), followed by spectra analysis by the DataAnalysis 3.4 software (Bruker Daltonics, Germany)—resolution of at least 5 ppm. Proton NMR and ^13C NMR measurements were performed on a Bruker AMX-500 spectrometer, utilizing CDCl3 or DMSO-d6 as a solvent. Proton and ^13C chemical shifts (given in ppm) were calibrated to TMS (δ = 0 ppm) as an internal reference. Krafft points were measured according to procedures described in our previous studies Lamch et al.,[82]. Values of CMC for all surfactants were measured utilizing the conductometric method for the compounds’ solutions in milliQ water in the same manner as described in Kula et al.. For all spectra: ^1H NMR, ^13C NMR and ESI–MS as well as appropriate comments see Electronic Supplementary Material.

[3] = tested on: S. cerevisiae Σ1278b ATCC 42800; experiment: Cytotoxicity, alamarBlue (resazurin) assay on yeast cells; type: cell-based, Saccharomyces cerevisiae; conditions: ¼ and ½ MIC
Procedure: To determine the cytotoxicity of the tested gemini QAS on yeast cells, an experiment was performed using the alamarBlue colorimetric assay to determine the metabolic activity of cells, using the modified alamarBlue Cell Viability Assay Reagent method. Enzymes of the electron transport system reduce the blue resazurin solution to resorufin, which is fluorescent pink.
The yeast culture S. cerevisiae Σ1278b was incubated at 28 °C for 16 h with shaking (100 rpm), centrifuged (1000 rcf, 5 min) and the optical density was obtained, OD = 1.0, λ = 590 nm. On a 96-well titration plate we spotted 160 μl of YPG medium, 20 μl of yeast culture and the tested gemini QAS at final concentrations of ½ and ¼ MIC. The negative control was YPG medium with resazurin solution, and the positive control was resazurin solution with yeast culture. The plates were incubated at 28 °C for 12 h. Then, 20 μl of resazurin solution (alamarBlue) was added to the wells and the plate was incubated for 4 h in the dark. After incubation, the absorbance was measured at λ = 570 nm and λ = 600 nm and the color change of the wells from blue to pink was observed. The experiment was performed in 3 repetitions.

[4] = tested on: Candida albicans 595/20; experiment: MIC/MFC, microdilution method (modified CLSI M27); type: cell-based; conditions: C. albicans 595/20 (clinical isolate), 28 °C, 24 h; for Minimum inhibitory concentration (MIC): 90% growth inhibition, YPG; for Minimum fungicidal concentration (MFC*): no growth on solid YPG
Procedure: (§1) Minimum inhibitory concentration (MIC) and minimum fungicidal concentration (MFC) values were determined based on the modified CLSI M27 protocol. The study was performed using the microdilution method on sterile 96-well titration plates. The S. cerevisiae Σ1278b ATCC 42800, S. cerevisiae BY4741 ATCC 201388, C. albicans ATCC 10231, C. albicans 595/20 and R. mucilaginosa ATCC 4056 were incubated for 18 h at 28 °C (without shaking), then centrifuged (1000 rcf, 5 min), and the obtained pellet was suspended in fresh YPG medium and optical density (OD) = 0.25–0.3 was determined at a wavelength (λ) of 590 nm. Next, 10 μl of selected compounds at appropriate final concentrations (5–1280 μM) were spotted into the wells of the titration plate. Then, 80 μl of YPG medium and 10 μl of culture with a fixed OD were added. All tests were performed in triplicate. The plate was incubated at 28 °C for 24 h. The YPG medium was a negative control, while the prepared culture not treated with compounds was a positive control. […] The minimum inhibitory concentration was determined at 90% growth inhibition.
(§2) In order to determine the MFC of selected gemini surfactants, 10 μl of culture was transferred to solid YPG medium from the wells of the titration plate in which MIC was observed and from wells with the compound with higher concentrations. The spotted suspensions were incubated at 28 °C for 24 h. After incubation, inhibition of the growth of microorganisms was observed.

[5] = tested on: Saccharomyces cerevisiae Σ1278b ATCC 42800; experiment: MIC/MFC, microdilution method (modified CLSI M27); type: cell-based; conditions: S. cerevisiae Σ1278b, 28 °C, 24 h; for Minimum inhibitory concentration (MIC): 90% growth inhibition, YPG; for Minimum fungicidal concentration (MFC*): no growth on solid YPG
Procedure: as §1, §2

[6] = tested on: Rhodotorula mucilaginosa ATCC 4056; experiment: MIC/MFC, microdilution method (modified CLSI M27); type: cell-based; conditions: R. mucilaginosa ATCC 4056, 28 °C, 24 h
Procedure: as §1, §2

[7] = tested on: Saccharomyces cerevisiae BY4741 ATCC 201388; experiment: MIC/MFC, microdilution method (modified CLSI M27); type: cell-based; conditions: S. cerevisiae BY4741, 28 °C, 24 h; for MIC: 90% growth inhibition, YPG, read-out: Minimum inhibitory concentration (MIC); for Minimum fungicidal concentration (MFC*): no growth on solid YPG
Procedure: as §1, §2

[8] = tested on: Candida albicans ATCC 10231; experiment: MIC/MFC, microdilution method (modified CLSI M27); type: cell-based; conditions: C. albicans ATCC 10231, 28 °C, 24 h; for Minimum inhibitory concentration (MIC): 90% growth inhibition, YPG; for Minimum fungicidal concentration (MFC*): no growth on solid YPG
Procedure: as §1, §2

[9] = tested on: Salmonella Typhimurium TA100; conditions: for Number of colonies: ± SD
Procedure: The mutagenic potential of the tested gemini QAS was determined using the Ames test[83] using Salmonella Typhimurium TA98 and Salmonella Typhimurium TA100 with defects in histidine biosynthesis. The culture of S. Typhimurium TA98 and S. Typhimurium TA100 was incubated with shaking at 37 °C for 18 h, centrifuged (3000 rpm, 5 min) and OD = 1.5 was determined, at a wavelength of λ = 590 nm. The agar was dissolved and cooled to 42 °C. […] The media were incubated for 48 h at 37 °C. The positive control for the S. Typhimurium TA98 strain was acriflavin (100 μg/ml), and for the S. Typhimurium TA100 strain, sodium azide (15 μg/ml). The negative control was the culture without tested compound and with NaCl (0,9%). After incubation, the colonies were counted and the mutagenicity index (MR) was determined—the ratio of the number of revertants resulting from the mutagenic effect of the tested compound to the number of spontaneous revertants. Experiment was performed in three repetitions.

SMILES | Effect on production of filaments by C. albicans [1] | TK (Krafft point) [2] | Cytotoxic potential towards mitochondrial metabolism of S. cerevisiae Σ1278b cells [3] | Minimum inhibitory concentration (MIC) [4] | Minimum fungicidal concentration (MFC*) [4] | Minimum inhibitory concentration (MIC) [5] | Minimum fungicidal concentration (MFC*) [5] | MIC ([6]; 90% growth inhibition, YPG, read-out: Minimum inhibitory concentration (MIC)) [µM] | MFC ([6]; no growth on solid YPG, read-out: Minimum fungicidal concentration (MFC*)) [µM] | MIC [7] [µM] | Minimum fungicidal concentration (MFC*) [7] [µM] | Minimum inhibitory concentration (MIC) [8] | Minimum fungicidal concentration (MFC*) [8] | Mutagenicity ratio (MR) ([9]; TA100, ¼ MIC) | Number of colonies ([9]; TA100, ¼ MIC) | Mutagenicity ratio (MR) ([9]; TA100, ½ MIC) | Number of colonies ([9]; TA100, ½ MIC) | Minimum inhibitory concentration (MIC) ([6]; 90% growth inhibition, YPG) | Minimum fungicidal concentration (MFC*) ([6]; no growth on solid YPG)
CCCCCCCCCCCCCCCC(=O)N(CCCN(CCC[N+](C)(C)C)C(=O)CCCCCCCCCCCCCCC)CCC[N+](C)(C)C [2xC16LaG3] | strongly prevented the formation of filaments | < 0 °C | did not have cytotoxic potential | > 1280 > 1280* µM | > 1280 > 1280* µM | > 1280 > 1280* µM | > 1280 > 1280* µM | 80 | 640 | 640 | > 1280 | > 1280 > 1280* µM | > 1280 > 1280* µM | 0.99 | 197.7 ± 1.53 | 1.06 | 213.0 ± 4.24 |  | 
CCCCCCCCCCCCCCCC(=O)N(CCCN(CCC[N+](C)(C)C)C(=O)CCCCCCCCCCCCCCC)CCC[N+](C)(C)C [2xC16MeCO3G3, dimethyl{{3-[N-(3-{N-[3-(dimethylammonium)propyl]hexadecylamido}propyl}hexadecylamido}propyl}}ammonium dimethylcarbonate] | significantly reduced their number | ~ 5 °C | did not have cytotoxic potential | > 1280 > 1280* µM | > 1280 > 1280* µM | > 1280 > 1280* µM | > 1280 > 1280* µM |  |  | 640 | 1280 | > 1280 > 1280* µM | > 1280 > 1280* µM | 1.43 | 398.0 ± 2.83 | 1.76 | 490.5 ± 3.54 | 640 640* µM | 640 640* µM
